Results: patent US8822520B2, “Substituted bicyclic HCV inhibitors” (Presidio Pharmaceuticals, Inc., priority 2010, dated 2014)

Test system: HCV genotype 1b replicon in Huh 7 cells (HCV 1b_Huh-Luc/Neo-ET cell line)
Experiment: HCV replicon assay (luciferase readout)
Type: cell-based
Settings: Hepatitis C virus, Huh-7; Table 1; EC50 range class; replicon luciferase, 72 h incubation, average EC50; read-out: Inhibition of HCV genotype 1b
Experimental: Biological activity of the compounds of the invention was determined using an HCV replicon assay. The HCV 1b_Huh-Luc/Neo-ET cell line persistently expressing a bicistronic genotype 1b replicon in Huh 7 cells was obtained from ReBLikon GMBH. This cell line was used to test compound inhibition using luciferase enzyme activity readout as a measurement of compound inhibition of replicon levels.
On Day 1 (the day after plating cells), each compound is added in triplicate to the cells. Plates are incubated for 72 h prior to determining luciferase levels. Enzyme activity was measured using a Bright-Glo Kit (cat. number E2620) manufactured by Promega Corporation. The following equation was used to generate a percent control value for each compound. % Control=(Compound Luciferase Level/Control Luciferase Level)*100
The EC50 value was determined using GraphPad Prism and the following equation: Y=Bottom asymptote+(Top asymptote−Bottom asymptote)/(1+10^((Log EC50−X)*HillSlope))
EC50 values of compounds are determined several times in the replicon assay to generate average EC50 values.

## COCCOc1cc(-c2cnc([C@@H]3CCCN3C(=O)[C@@H](NC(=O)OC)C(C)C)[nH]2)ccc1-c1ccc(-c2cnc([C@@H]3CCCN3C(=O)[C@@H](NC(=O)OC)C(C)C)[nH]2)cc1OCCOC [Compound 1]
  EC50: < 1 nM

## COCCOc1c(-c2ccc(-c3cnc([C@@H]4CCCN4C(=O)[C@@H](NC(=O)OC)C(C)C)[nH]3)cc2)ccc(-c2cnc([C@@H]3CCCN3C(=O)[C@@H](NC(=O)OC)C(C)C)[nH]2)c1OCCOC [Compound 2]
  EC50: < 1 nM

## CC[C@H](C)C(NC(=O)OC)C(=O)N1CCC[C@H]1c1ncc(-c2ccc(-c3ccc(-c4cnc([C@@H]5CCCN5C(=O)[C@@H](NC(=O)OC)[C@@H](C)CC)[nH]4)c(OCCOC)c3OCCOC)cc2)[nH]1 (stereo partly shown) [Compound 3]
  EC50: < 1 nM

## COCCOc1c(-c2ccc(-c3cnc([C@@H]4CCCN4C(=O)[C@@H](NC(=O)OC)C4CCCC4)[nH]3)cc2)ccc(-c2cnc([C@@H]3CCCN3C(=O)[C@@H](NC(=O)OC)C3CCCC3)[nH]2)c1OCCOC [Compound 4]
  EC50: < 1 nM

## COCCOc1cc(-c2cnc([C@@H]3CCCN3C(=O)[C@H](C)NC(=O)OC)[nH]2)ccc1-c1ccc(-c2cnc([C@@H]3CCCN3C(=O)[C@H](C)NC(=O)OC)[nH]2)cc1OCCOC [Compound 6]
  EC50: 10 to 999 nM

## CC[C@H](C)C(NC(=O)OC)C(=O)N1CCC[C@H]1c1ncc(-c2ccc(-c3ccc(-c4cnc([C@@H]5CCCN5C(=O)C(NC(=O)OC)[C@@H](C)CC)[nH]4)cc3OCCOC)c(OCCOC)c2)[nH]1 (stereo partly shown) [Compound 7]
  EC50: < 1 nM

## COCCOc1cc(-c2cnc([C@@H]3CCCN3C(=O)[C@@H](NC(=O)OC)C3CCCC3)[nH]2)ccc1-c1ccc(-c2cnc([C@@H]3CCCN3C(=O)[C@@H](NC(=O)OC)C3CCCC3)[nH]2)cc1OCCOC [Compound 8]
  EC50: < 1 nM

## COCCOc1cc(-c2cnc([C@@H]3CCCN3C(=O)[C@@H](NC(=O)OC)C3CCCCC3)[nH]2)ccc1-c1ccc(-c2cnc([C@@H]3CCCN3C(=O)[C@@H](NC(=O)OC)C3CCCCC3)[nH]2)cc1OCCOC [Compound 9]
  EC50: < 1 nM

## COCCOc1c(-c2ccc(-c3cnc([C@@H]4CCCN4C(=O)[C@H](C)NC(=O)OC)[nH]3)cc2)ccc(-c2cnc([C@@H]3CCCN3C(=O)[C@H](C)NC(=O)OC)[nH]2)c1OCCOC [Compound 10]
  EC50: < 1 nM

## COCCOc1c(-c2ccc(-c3cnc([C@@H]4CCCN4C(=O)C(NC(=O)OC)[C@@H](C)OC)[nH]3)cc2)ccc(-c2cnc([C@@H]3CCCN3C(=O)C(NC(=O)OC)[C@@H](C)OC)[nH]2)c1OCCOC (stereo partly shown) [Compound 12]
  EC50: 1 to 9.9 nM

## COCCOc1c(-c2ccc(-c3cnc([C@@H]4CCCN4C(=O)[C@@H](NC(=O)OC)C(C)(C)C)[nH]3)cc2)ccc(-c2cnc([C@@H]3CCCN3C(=O)[C@@H](NC(=O)OC)C(C)(C)C)[nH]2)c1OCCOC [Compound 13]
  EC50: 1 to 9.9 nM

## COCCOc1c(-c2ccc(-c3cnc([C@@H]4CCCN4C(=O)[C@@H](NC(=O)OC)C4CCOCC4)[nH]3)cc2)ccc(-c2cnc([C@@H]3CCCN3C(=O)[C@@H](NC(=O)OC)C3CCOCC3)[nH]2)c1OCCOC [Compound 14]
  EC50: 1 to 9.9 nM

## COCCOc1c(-c2ccc(-c3cnc([C@@H]4CCCN4C(=O)[C@@H](c4ccccc4)N(C)C)[nH]3)cc2)ccc(-c2cnc([C@@H]3CCCN3C(=O)[C@@H](c3ccccc3)N(C)C)[nH]2)c1OCCOC [Compound 15]
  EC50: < 1 nM

## COCCOc1c(-c2ccc(-c3cnc([C@@H]4CCCN4C(=O)[C@@H](c4ccccc4)N4CCCC4)[nH]3)cc2)ccc(-c2cnc([C@@H]3CCCN3C(=O)[C@@H](c3ccccc3)N3CCCC3)[nH]2)c1OCCOC [Compound 16]
  EC50: 1 to 9.9 nM

## COCCOc1c(-c2ccc(-c3cnc([C@@H]4CCCN4C(=O)[C@H](NS(C)(=O)=O)c4ccccc4)[nH]3)cc2)ccc(-c2cnc([C@@H]3CCCN3C(=O)[C@H](NS(C)(=O)=O)c3ccccc3)[nH]2)c1OCCOC [Compound 17]
  EC50: < 1 nM

## COCCOc1c(-c2ccc(-c3cnc([C@@H]4CCCN4C(=O)[C@H](NC(=O)OC)C(C)C)[nH]3)cc2)ccc(-c2cnc([C@@H]3CCCN3C(=O)[C@H](C)NC(=O)OC)[nH]2)c1OCCOC [Compound 18]
  EC50: 1 to 9.9 nM
